Source: the supplement of paper PMC10733146

How the values were obtained:
Assay in all cases: viability relative to DMSO control (fraction); higher = less drug effect (more viable cells)
Settings in all cases: 48 h
ERK5-IN-1 = compound: CCOc1cc(C(=O)N2CCC(N3CCN(C)CC3)CC2)ccc1Nc1ncc2c(n1)N(C1CCCC1)c1ccccc1C(=O)N2C [ERK5-IN-1]
Procedure, shortened: (§1)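 The cells were primary mononuclear tumour cells, either fresh or cryopreserved, isolated by Ficoll from blood or bone marrow or derived from processed lymph node. Each well of a 384-well plate received 4 × 10^4 cells onto compounds pre-plated at five concentrations, with one well per concentration. The medium was RPMI-1640 with penicillin/streptomycin, L-glutamine and human serum, and plates stood at 37 °C and 5% CO2 for 48 h. Viability is reported as CellTiter-Glo luminescence relative to the median of 16 inner DMSO wells.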

Ribociclib = compound: CN(C)C(=O)c1cc2cnc(Nc3ccc(N4CCNCC4)cn3)nc2n1C1CCCC1 [Ribociclib]
Procedure, shortened: as §1

Panobinostat = compound: Cc1[nH]c2ccccc2c1CCNCc1ccc(/C=C/C(=O)NO)cc1 [Panobinostat]
Procedure, shortened: as §1

Pralatrexate = compound: C#CCC(Cc1cnc2nc(N)nc(N)c2n1)c1ccc(C(=O)N[C@@H](CCC(=O)O)C(=O)O)cc1 [Pralatrexate]
Procedure, shortened: as §1

Vincristine = compound: CC[C@]1(O)C[C@H]2CN(CCc3c([nH]c4ccccc34)[C@@](C(=O)OC)(c3cc4c(cc3OC)N(C=O)[C@H]3[C@@](O)(C(=O)OC)[C@H](OC(C)=O)[C@]5(CC)C=CCN6CC[C@]43[C@@H]65)C2)C1 [Vincristine]
Procedure, shortened: as §1

TMP269 = compound: O=C(NCC1(c2nc(-c3ccccc3)cs2)CCOCC1)c1cccc(-c2noc(C(F)(F)F)n2)c1 [TMP269]
Procedure, shortened: as §1

Vorinostat = compound: O=C(CCCCCCC(=O)Nc1ccccc1)NO [Vorinostat]
Procedure, shortened: as §1

[1] = compound: CC(C)(C)OC(=O)Nc1ccc(-c2cc(C(=O)NCCCCCCC(=O)NO)no2)cc1
Procedure, shortened: as §1

MLN-120B = compound: COc1c(Cl)cc2c([nH]c3cnccc32)c1NC(=O)c1cccnc1C [MLN-120B]
Procedure, shortened: as §1

BI6727 = compound: CC[C@@H]1C(=O)N(C)c2cnc(Nc3ccc(C(=O)N[C@H]4CC[C@H](N5CCN(CC6CC6)CC5)CC4)cc3OC)nc2N1C(C)C [BI6727]
Procedure, shortened: as §1

ONO-4059 = compound: CC#CC(=O)N1CC[C@@H](n2c(=O)n(-c3ccc(Oc4ccccc4)cc3)c3c(N)ncnc32)C1 [ONO-4059]
Procedure, shortened: as §1

Vemurafenib = compound: CCCS(=O)(=O)Nc1ccc(F)c(C(=O)c2c[nH]c3ncc(-c4ccc(Cl)cc4)cc23)c1F [Vemurafenib]
Procedure, shortened: as §1

Pentostatin = compound: OC[C@H]1O[C@@H](n2cnc3c2N=CNC[C@H]3O)C[C@@H]1O [Pentostatin]
Procedure, shortened: as §1

Cladribine = compound: Nc1nc(Cl)nc2c1ncn2[C@H]1C[C@H](O)[C@@H](CO)O1 [Cladribine]
Procedure, shortened: as §1

Obatoclax mesylate = compound: COC1=CC(c2cc3ccccc3[nH]2)=N/C1=C\c1[nH]c(C)cc1C [Obatoclax mesylate]
Procedure, shortened: as §1

AZD7762 = compound: NC(=O)Nc1cc(-c2cccc(F)c2)sc1C(=O)N[C@H]1CCCNC1 [AZD7762]
Procedure, shortened: as §1

primary DLBCL patient cells (S076)
viability (ERK5-IN-1; 0.024 µM): 1.09 | viability (ERK5-IN-1; 0.12 µM): 1 | viability (ERK5-IN-1; 0.6 µM): 0.876 | viability (ERK5-IN-1; 3 µM): 0.755 | viability (ERK5-IN-1; 15 µM): 0.436 | viability (Ribociclib; 0.024 µM): 1.25 | viability (Ribociclib; 0.12 µM): 1.2 | viability (Ribociclib; 0.6 µM): 1.11 | viability (Ribociclib; 3 µM): 0.986 | viability (Ribociclib; 15 µM): 0.586 | viability (Panobinostat; 0.00064 µM): 1.05 | viability (Panobinostat; 0.0032 µM): 0.78 | viability (Panobinostat; 0.016 µM): 0.285 | viability (Panobinostat; 0.08 µM): 0.203 | viability (Panobinostat; 0.4 µM): 0.169 | viability (Pralatrexate; 0.024 µM): 1.01 | viability (Pralatrexate; 0.12 µM): 0.756 | viability (Pralatrexate; 0.6 µM): 0.838 | viability (Pralatrexate; 3 µM): 0.978 | viability (Pralatrexate; 15 µM): 0.843 | viability (Vincristine; 0.016 µM): 0.726 | viability (Vincristine; 0.08 µM): 0.561 | viability (Vincristine; 0.4 µM): 0.519 | viability (Vincristine; 2 µM): 0.44 | viability (Vincristine; 10 µM): 0.363 | viability (TMP269; 0.024 µM): 1.17 | viability (TMP269; 0.12 µM): 1.07 | viability (TMP269; 0.6 µM): 1.15 | viability (TMP269; 3 µM): 0.94 | viability (TMP269; 15 µM): 0.959 | viability (Vorinostat; 0.016 µM): 1 | viability (Vorinostat; 0.08 µM): 0.884 | viability (Vorinostat; 0.4 µM): 0.734 | viability (Vorinostat; 2 µM): 0.417 | viability (Vorinostat; 10 µM): 0.198 | viability ([1]; 0.024 µM): 1.05 | viability ([1]; 0.12 µM): 0.81 | viability ([1]; 0.6 µM): 0.628 | viability ([1]; 3 µM): 0.313 | viability ([1]; 15 µM): 0.119 | viability (MLN-120B; 0.024 µM): 1.07 | viability (MLN-120B; 0.12 µM): 1.07 | viability (MLN-120B; 0.6 µM): 1.05 | viability (MLN-120B; 3 µM): 0.997 | viability (MLN-120B; 15 µM): 0.861 | viability (BI6727; 0.024 µM): 1.07 | viability (BI6727; 0.12 µM): 0.971 | viability (BI6727; 0.6 µM): 0.881 | viability (BI6727; 3 µM): 0.614 | viability (BI6727; 15 µM): 0.372 | viability (ONO-4059; 0.0016 µM): 1.03 | viability (ONO-4059; 0.008 µM): 1.04 | viability (ONO-4059; 0.04 µM): 1.08 | viability (ONO-4059; 0.2 µM): 0.992 | viability (ONO-4059; 1 µM): 0.929 | viability (Vemurafenib; 0.024 µM): 0.8 | viability (Vemurafenib; 0.12 µM): 0.988 | viability (Vemurafenib; 0.6 µM): 0.83 | viability (Vemurafenib; 3 µM): 1.04 | viability (Vemurafenib; 15 µM): 1.05 | viability (Pentostatin; 0.03 µM): 1.04 | viability (Pentostatin; 0.15 µM): 0.808 | viability (Pentostatin; 0.75 µM): 0.824 | viability (Pentostatin; 3.75 µM): 0.6 | viability (Pentostatin; 18.76 µM): 0.618 | viability (Cladribine; 0.024 µM): 0.475 | viability (Cladribine; 0.12 µM): 0.331 | viability (Cladribine; 0.6 µM): 0.138 | viability (Cladribine; 3 µM): 0.0919 | viability (Cladribine; 15 µM): 0.0759 | viability (Obatoclax mesylate; 0.024 µM): 0.922 | viability (Obatoclax mesylate; 0.12 µM): 1.14 | viability (Obatoclax mesylate; 0.6 µM): 0.746 | viability (Obatoclax mesylate; 3 µM): 0.541 | viability (Obatoclax mesylate; 15 µM): 0.173 | viability (AZD7762; 0.024 µM): 0.679 | viability (AZD7762; 0.12 µM): 0.69 | viability (AZD7762; 0.6 µM): 0.55 | viability (AZD7762; 3 µM): 0.481 | viability (AZD7762; 15 µM): 0.348

primary T-NHL patient cells (S058)
viability (ERK5-IN-1; 0.024 µM): 1.12 | viability (ERK5-IN-1; 0.12 µM): 1.15 | viability (ERK5-IN-1; 0.6 µM): 0.851 | viability (ERK5-IN-1; 3 µM): 0.59 | viability (ERK5-IN-1; 15 µM): 0.403 | viability (Ribociclib; 0.024 µM): 1.05 | viability (Ribociclib; 0.12 µM): 1.14 | viability (Ribociclib; 0.6 µM): 1.07 | viability (Ribociclib; 3 µM): 1.01 | viability (Ribociclib; 15 µM): 1.06 | viability (Panobinostat; 0.00064 µM): 1.24 | viability (Panobinostat; 0.0032 µM): 0.886 | viability (Panobinostat; 0.016 µM): 0.292 | viability (Panobinostat; 0.08 µM): 0.302 | viability (Panobinostat; 0.4 µM): 0.243 | viability (Pralatrexate; 0.024 µM): 1.15 | viability (Pralatrexate; 0.12 µM): 0.861 | viability (Pralatrexate; 0.6 µM): 0.833 | viability (Pralatrexate; 3 µM): 0.902 | viability (Pralatrexate; 15 µM): 0.833 | viability (Vincristine; 0.016 µM): 0.646 | viability (Vincristine; 0.08 µM): 0.417 | viability (Vincristine; 0.4 µM): 0.364 | viability (Vincristine; 2 µM): 0.302 | viability (Vincristine; 10 µM): 0.246 | viability (TMP269; 0.024 µM): 1.05 | viability (TMP269; 0.12 µM): 0.994 | viability (TMP269; 0.6 µM): 1.01 | viability (TMP269; 3 µM): 0.892 | viability (TMP269; 15 µM): 0.836 | viability (Vorinostat; 0.016 µM): 1.16 | viability (Vorinostat; 0.08 µM): 0.894 | viability (Vorinostat; 0.4 µM): 0.789 | viability (Vorinostat; 2 µM): 0.381 | viability (Vorinostat; 10 µM): 0.274 | viability ([1]; 0.024 µM): 0.982 | viability ([1]; 0.12 µM): 0.854 | viability ([1]; 0.6 µM): 0.611 | viability ([1]; 3 µM): 0.355 | viability ([1]; 15 µM): 0.258 | viability (MLN-120B; 0.024 µM): 0.984 | viability (MLN-120B; 0.12 µM): 1.15 | viability (MLN-120B; 0.6 µM): 1.05 | viability (MLN-120B; 3 µM): 1.16 | viability (MLN-120B; 15 µM): 0.908 | viability (BI6727; 0.024 µM): 0.939 | viability (BI6727; 0.12 µM): 0.885 | viability (BI6727; 0.6 µM): 0.757 | viability (BI6727; 3 µM): 0.506 | viability (BI6727; 15 µM): 0.3 | viability (ONO-4059; 0.0016 µM): 1.06 | viability (ONO-4059; 0.008 µM): 1.25 | viability (ONO-4059; 0.04 µM): 1.03 | viability (ONO-4059; 0.2 µM): 1.16 | viability (ONO-4059; 1 µM): 1.07 | viability (Vemurafenib; 0.024 µM): 0.878 | viability (Vemurafenib; 0.12 µM): 0.957 | viability (Vemurafenib; 0.6 µM): 0.911 | viability (Vemurafenib; 3 µM): 0.982 | viability (Vemurafenib; 15 µM): 0.96 | viability (Pentostatin; 0.03 µM): 1.1 | viability (Pentostatin; 0.15 µM): 1.06 | viability (Pentostatin; 0.75 µM): 0.988 | viability (Pentostatin; 3.75 µM): 0.816 | viability (Pentostatin; 18.76 µM): 0.858 | viability (Cladribine; 0.024 µM): 0.857 | viability (Cladribine; 0.12 µM): 0.441 | viability (Cladribine; 0.6 µM): 0.147 | viability (Cladribine; 3 µM): 0.112 | viability (Cladribine; 15 µM): 0.0704 | viability (Obatoclax mesylate; 0.024 µM): 0.985 | viability (Obatoclax mesylate; 0.12 µM): 0.916 | viability (Obatoclax mesylate; 0.6 µM): 0.783 | viability (Obatoclax mesylate; 3 µM): 0.533 | viability (Obatoclax mesylate; 15 µM): 0.227 | viability (AZD7762; 0.024 µM): 1.05 | viability (AZD7762; 0.12 µM): 1.16 | viability (AZD7762; 0.6 µM): 0.936 | viability (AZD7762; 3 µM): 1.02 | viability (AZD7762; 15 µM): 0.719
